Results reported in ChEMBL document CHEMBL1201862, “PubChem BioAssay data set” (2004).
Calls of active or inactive are those of the source.

Key:
[1] = target: T1, Heat shock factor protein 1 (Mus musculus, UniProt P38532); assay: inhibition of MG132-induced HSE-luciferase signal, confirmation, cell-based, NIH3T3, luminescence, dose retest (AID 2382); format: functional;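 further: NIH3T3 fibroblasts with HSF1-driven luciferase reporter stressed by proteasome inhibitor MG132; luminescence from HSF1-driven luciferase expression after 8 hours of MG132 stress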
T1 sequence (P38532 whole entry): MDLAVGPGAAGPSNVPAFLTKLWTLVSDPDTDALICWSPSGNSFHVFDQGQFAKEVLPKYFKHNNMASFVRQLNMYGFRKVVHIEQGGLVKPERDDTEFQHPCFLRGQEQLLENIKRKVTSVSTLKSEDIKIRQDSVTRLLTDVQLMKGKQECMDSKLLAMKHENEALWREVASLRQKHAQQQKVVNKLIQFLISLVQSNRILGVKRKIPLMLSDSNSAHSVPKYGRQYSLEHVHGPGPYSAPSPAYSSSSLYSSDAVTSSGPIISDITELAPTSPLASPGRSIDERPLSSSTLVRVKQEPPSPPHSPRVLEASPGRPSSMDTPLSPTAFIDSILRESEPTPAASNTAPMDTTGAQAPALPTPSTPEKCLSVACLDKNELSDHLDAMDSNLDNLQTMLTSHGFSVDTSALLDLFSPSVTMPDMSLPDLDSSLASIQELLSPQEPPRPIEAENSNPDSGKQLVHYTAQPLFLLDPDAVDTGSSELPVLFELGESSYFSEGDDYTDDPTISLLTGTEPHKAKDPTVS

Cytochrome P450 2C19 = Cytochrome P450 2C19 (Homo sapiens, UniProt P33261); assay: Cytochrome panel assay with activity outcomes. Panel member name: p450-cyp2c19 Compounds with AC50 equal or less than 10 uM are considered active; format: functional
Chain of Cytochrome P450 2C19 (P33261 whole entry): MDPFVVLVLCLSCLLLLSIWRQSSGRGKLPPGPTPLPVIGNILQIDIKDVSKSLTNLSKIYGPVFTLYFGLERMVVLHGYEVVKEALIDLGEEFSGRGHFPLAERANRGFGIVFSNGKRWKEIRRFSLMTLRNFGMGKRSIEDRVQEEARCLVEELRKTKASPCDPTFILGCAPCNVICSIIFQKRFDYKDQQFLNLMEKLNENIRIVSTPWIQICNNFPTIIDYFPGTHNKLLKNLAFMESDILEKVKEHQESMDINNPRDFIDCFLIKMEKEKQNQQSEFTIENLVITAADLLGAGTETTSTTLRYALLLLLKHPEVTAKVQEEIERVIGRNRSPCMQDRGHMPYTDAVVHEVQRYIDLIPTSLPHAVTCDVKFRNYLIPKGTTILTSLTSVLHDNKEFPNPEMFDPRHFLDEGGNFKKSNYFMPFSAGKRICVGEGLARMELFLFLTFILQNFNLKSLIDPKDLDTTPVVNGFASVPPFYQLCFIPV

Cytochrome P450 1A2 = target: T2, Cytochrome P450 1A2 (Homo sapiens, UniProt P05177);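 further: PubChem cytochrome P450 panel assay, CYP1A2 panel member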
T2 sequence (P05177 whole entry): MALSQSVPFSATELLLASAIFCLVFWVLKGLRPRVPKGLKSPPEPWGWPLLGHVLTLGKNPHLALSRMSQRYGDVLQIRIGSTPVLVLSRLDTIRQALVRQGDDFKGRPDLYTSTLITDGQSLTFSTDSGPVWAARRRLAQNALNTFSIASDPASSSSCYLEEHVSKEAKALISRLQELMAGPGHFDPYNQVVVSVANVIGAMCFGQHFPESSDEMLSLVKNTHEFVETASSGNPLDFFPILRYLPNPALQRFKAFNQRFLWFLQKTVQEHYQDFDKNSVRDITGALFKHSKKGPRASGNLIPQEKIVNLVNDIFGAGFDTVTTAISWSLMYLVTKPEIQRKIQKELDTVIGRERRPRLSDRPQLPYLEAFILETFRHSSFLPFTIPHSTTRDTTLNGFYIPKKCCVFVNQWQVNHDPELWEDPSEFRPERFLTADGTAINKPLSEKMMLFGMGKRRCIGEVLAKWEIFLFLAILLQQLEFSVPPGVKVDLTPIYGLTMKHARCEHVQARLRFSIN

Cytochrome P450 2C9 = Cytochrome P450 2C9 (Homo sapiens, UniProt P11712)
Chain of Cytochrome P450 2C9 (P11712 whole entry): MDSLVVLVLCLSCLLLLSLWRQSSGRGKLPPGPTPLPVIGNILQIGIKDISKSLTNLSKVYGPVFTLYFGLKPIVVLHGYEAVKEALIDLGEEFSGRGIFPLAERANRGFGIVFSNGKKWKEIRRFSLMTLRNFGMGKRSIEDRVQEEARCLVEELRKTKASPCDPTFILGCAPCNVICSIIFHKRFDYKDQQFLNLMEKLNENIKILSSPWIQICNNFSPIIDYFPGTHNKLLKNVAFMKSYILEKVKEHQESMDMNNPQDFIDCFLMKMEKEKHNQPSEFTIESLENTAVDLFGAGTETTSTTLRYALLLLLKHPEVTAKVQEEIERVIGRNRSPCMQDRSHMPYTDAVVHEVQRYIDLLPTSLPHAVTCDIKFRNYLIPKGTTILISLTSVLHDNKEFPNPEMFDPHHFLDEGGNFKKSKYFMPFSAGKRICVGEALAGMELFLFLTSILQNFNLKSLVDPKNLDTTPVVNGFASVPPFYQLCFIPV

Cytochrome P450 3A4 = Cytochrome P450 3A4 (Homo sapiens, UniProt P08684);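 further: CYP3A4 tested as one member of a cytochrome P450 panel screen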
Chain of Cytochrome P450 3A4 (P08684 whole entry): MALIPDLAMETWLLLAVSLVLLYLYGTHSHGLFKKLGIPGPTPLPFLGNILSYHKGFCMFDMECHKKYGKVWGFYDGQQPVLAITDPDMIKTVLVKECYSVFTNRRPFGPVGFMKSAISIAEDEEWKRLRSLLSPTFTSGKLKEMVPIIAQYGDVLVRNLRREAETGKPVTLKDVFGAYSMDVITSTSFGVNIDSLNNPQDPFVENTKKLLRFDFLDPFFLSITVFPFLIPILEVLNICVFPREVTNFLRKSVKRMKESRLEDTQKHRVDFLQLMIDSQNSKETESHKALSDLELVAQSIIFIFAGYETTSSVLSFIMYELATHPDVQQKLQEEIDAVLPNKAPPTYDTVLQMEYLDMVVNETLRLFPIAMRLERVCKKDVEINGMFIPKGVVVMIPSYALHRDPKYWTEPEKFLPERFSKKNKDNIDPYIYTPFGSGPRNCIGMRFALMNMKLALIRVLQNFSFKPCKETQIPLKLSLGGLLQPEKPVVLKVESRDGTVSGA

[2] = target: T3, Corticotropin-releasing factor receptor 2/Corticotropin-releasing factor-binding protein (Homo sapiens, UniProt P24387+Q13324); assay: activators of CRF receptor 2 with binding protein – uHTS hits, confirmation (AID 602473); format: functional; settings: read-out: EC50_Mean
T3 sequence (Q13324 whole entry): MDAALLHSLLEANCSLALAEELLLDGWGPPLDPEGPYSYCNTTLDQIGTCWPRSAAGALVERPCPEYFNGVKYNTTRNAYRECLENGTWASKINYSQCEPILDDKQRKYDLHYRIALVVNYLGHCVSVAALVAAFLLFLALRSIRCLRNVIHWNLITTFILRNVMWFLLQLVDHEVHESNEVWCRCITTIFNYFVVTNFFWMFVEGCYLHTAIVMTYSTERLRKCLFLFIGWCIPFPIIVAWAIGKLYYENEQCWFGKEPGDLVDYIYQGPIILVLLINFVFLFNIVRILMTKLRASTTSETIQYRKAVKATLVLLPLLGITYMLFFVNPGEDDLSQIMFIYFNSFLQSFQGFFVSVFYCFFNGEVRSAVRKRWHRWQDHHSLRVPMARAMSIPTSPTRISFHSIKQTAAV
T3 sequence (P24387 whole entry): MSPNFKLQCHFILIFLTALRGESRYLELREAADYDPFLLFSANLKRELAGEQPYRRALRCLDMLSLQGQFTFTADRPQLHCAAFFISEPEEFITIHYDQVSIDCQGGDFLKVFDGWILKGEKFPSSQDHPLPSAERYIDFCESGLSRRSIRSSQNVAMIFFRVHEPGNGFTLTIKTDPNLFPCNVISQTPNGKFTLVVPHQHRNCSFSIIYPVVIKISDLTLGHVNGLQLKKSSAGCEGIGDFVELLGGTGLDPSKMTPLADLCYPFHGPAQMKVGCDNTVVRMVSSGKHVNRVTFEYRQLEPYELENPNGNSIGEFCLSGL

[3] = Luminescence Cell-Based Dose Retest to Confirm Inhibitors of Cancer Stem Cells. [Related pubchem assays (depositor defined):AID2717, AID2721]; format: functional; settings: Homo sapiens
[4] = HEp-2 cell cytotoxicity, dose response, cytotoxicity control for RSV inhibitor project, HTS (AID 2410); format: functional; settings: human respiratory syncytial virus
[5] = inhibitors of intracellular T. cruzi replication, confirmation, NIH3T3 host cells, beta-gal luminescence (AID 2044); format: functional, cell-based;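 further: intracellular parasites grown in NIH/3T3 mouse fibroblasts as host cells; luminescent beta-galactosidase reporter signal from transgenic T. cruzi replicating inside host cells; inhibitors lower the luminescence signal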
[6] = cytotoxicity toward NIH3T3 fibroblasts, dose response, counter-screen, cell-based, ATP luminescence, mouse fibroblasts (AID 2010); format: functional;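 further: cells exposed to compound for about 90 hours before reading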
[7] = test system: Streptococcus sp. 'group A'; assay: growth inhibition of control SK(-) GAS strain, dose response, counter-screen for streptokinase expression inhibitor project, luminescence, kanamycin, BacTiterGlo, confirmation (AID 1900); format: functional, organism-based
Streptococcus = assay: Group A Streptococcus viability loss, dose response, counter-screen for streptokinase expression inhibitor project, luminescence, BacTiterGlo (AID 1915); format: functional, organism-based;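 further: potency for reduction of bacterial viability or growth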
Cytochrome P450 2D6 = Cytochrome P450 2D6 (Homo sapiens, UniProt P10635);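 further: CYP2D6 member of a cytochrome P450 panel assay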
Chain of Cytochrome P450 2D6 (P10635 whole entry): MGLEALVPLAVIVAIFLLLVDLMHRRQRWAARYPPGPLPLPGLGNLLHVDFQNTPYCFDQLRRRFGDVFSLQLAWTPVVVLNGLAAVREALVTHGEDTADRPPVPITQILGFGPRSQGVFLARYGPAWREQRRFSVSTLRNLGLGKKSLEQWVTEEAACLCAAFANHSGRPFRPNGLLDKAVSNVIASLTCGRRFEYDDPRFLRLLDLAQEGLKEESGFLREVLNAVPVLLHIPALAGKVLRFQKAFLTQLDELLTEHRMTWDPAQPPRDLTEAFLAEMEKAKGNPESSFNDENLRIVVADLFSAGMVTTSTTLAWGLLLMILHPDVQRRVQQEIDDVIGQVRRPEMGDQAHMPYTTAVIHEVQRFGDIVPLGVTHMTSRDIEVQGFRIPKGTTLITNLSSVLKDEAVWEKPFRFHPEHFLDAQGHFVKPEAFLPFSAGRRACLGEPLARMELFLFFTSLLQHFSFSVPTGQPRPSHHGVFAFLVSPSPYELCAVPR

CCOC(=O)c1nnn(CC(=O)NC(=O)Nc2ccc(F)cc2)c1C(=O)OCC
EC50 [1]: > 195 µM (not active)

C[C@H]1C[C@@H]2[C@H]3CCC4=CC(=O)C=C[C@@]4(C)[C@@]3(Cl)[C@@H](O)C[C@]2(C)[C@]1(OC(=O)c1ccco1)C(=O)CCl
AC50 (Cytochrome P450 2C19): 7.94 µM (inconclusive) | AC50 (Cytochrome P450 1A2): 5.01 µM (inconclusive) | AC50 (Cytochrome P450 2C9): 5.01 µM (inconclusive)

CC1(C(=O)CSc2nc3ccccc3s2)CCC(=O)O1 (stereo not given)
AC50 (Cytochrome P450 3A4): 14.1 µM (inconclusive) | AC50 (Cytochrome P450 1A2): 3.55 µM (inconclusive)

CSCCC(NC(=O)c1ccco1)C(=O)N1CC=C(c2ccccc2)CC1 (stereo not given)
EC50 [2]: 6.78 µM (active)

Cc1nn(-c2ccccc2)c(N2CCCCC2)c1/C=N/O
AC50 [3]: 3.97 µM (active) | AC50 (Cytochrome P450 3A4): 14.1 µM (inconclusive) | AC50 (Cytochrome P450 2C9): 7.08 µM (inconclusive)

CC(=O)OC[C@@H]1O[C@H](CCO/N=C(\C)CCN2CCc3nc(-c4ccccc4)c(-c4ccccc4)cc3C2)C=C[C@@H]1OC(C)=O
AC50 (Cytochrome P450 3A4): 3.98 µM (inconclusive) | AC50 (Cytochrome P450 2C9): 3.16 µM (inconclusive)

CCOCCCNC(=O)c1cc(C)nn1-c1ccccc1
EC50 [1]: > 195 µM (not active)

C/C(=N\O)c1ccc2[nH]ccc2c1
AC50 (Cytochrome P450 2C19): 11.2 µM (inconclusive) | AC50 (Cytochrome P450 3A4): 22.4 µM (inconclusive)

O=S(=O)(NC1CC1)c1ccc(S(=O)(=O)N2CCC(c3nc(O)c4nnn(Cc5cccc(F)c5)c4n3)CC2)cc1
CC50 [4]: 24.8 µM (active)

Cc1ccc(-c2nc3ccccc3c(=O)n2-c2ncccc2C)cc1
AC50 (Cytochrome P450 2C19): 28.2 µM (inconclusive) | AC50 (Cytochrome P450 2C9): 17.8 µM (inconclusive)

CCOC(=O)C1=C(N)Oc2cc(O)ccc2C1c1ccc([N+](=O)[O-])cc1 (stereo not given)
EC50 [5]: 0.659 µM (active) | EC50 [6]: > 60 µM (not active) | CC50 [4]: 16.9 µM (active)

COC(=O)C(NC(=O)c1ccccc1)=C1C=C(C)OC(C)=C1
AC50 (Cytochrome P450 3A4): 22.4 µM (inconclusive) | AC50 (Cytochrome P450 1A2): 14.1 µM (inconclusive)

COc1ccc2c(c1)OC[C@H]1[C@H]2N2C(=O)CN(Cc3ccc(Cl)cc3)C(=O)[C@@]2(C)[C@H]1c1ccccc1
CC50 [4]: 14.7 µM (active)

Cc1ccc(C(=O)NCCNC(=O)c2ccc(F)cc2)cn1
EC50 [2]: > 53 µM (inactive)

CC1=CC(=C2C(=O)c3ccccc3C2=O)C=C(C)O1
AC50 (Cytochrome P450 3A4): 14.1 µM (inconclusive)

CC(C)=CCC12Oc3cc(O)ccc3C1(O)Oc1cc3c(c(O)c1C2=O)C=CC(C)(C)O3 (stereo not given)
EC50 [7]: 3.32 µM (active) | EC50 (Streptococcus): 3.92 µM (active)

CC1(C)CC(=O)C2=C(C1)N(Cc1cccnc1)C(=O)C2(NC(=O)c1cccnc1)C(F)(F)F (stereo not given)
AC50 (Cytochrome P450 2C19): 15.8 µM (inconclusive) | AC50 (Cytochrome P450 1A2): 28.2 µM (inconclusive) | AC50 (Cytochrome P450 2C9): 0.0794 µM (inconclusive)

COc1c(CC=C(C)C)c(O)cc2oc(=O)c3c4ccc(O)cc4oc3c12 [GLYCYROL]
CC50 [4]: 26.5 µM (active)

Cc1ccc(C(C)C)c2c1C(c1ccc3c(c1)OCO3)CC(=O)O2 (stereo not given)
EC50 [2]: 4.51 µM (active)

CSc1cccc(NC(=O)Cn2cccc2)c1
AC50 (Cytochrome P450 2D6): 14.1 µM (inconclusive) | AC50 (Cytochrome P450 3A4): 22.4 µM (inconclusive)

Cc1cc(C(=O)C(=O)NC(C)C)c(C)n1-c1ccc([N+](=O)[O-])cc1
AC50 (Cytochrome P450 2C19): 0.0708 µM (inconclusive)

COCCn1c(=O)c(-c2ccccc2)nc2cnc(Oc3ccccc3)nc21
AC50 (Cytochrome P450 3A4): 31.6 µM (inconclusive)

S=C(c1ccc(-c2ccc(Br)cc2)o1)N1CCCCC1
CC50 [4]: 29.3 µM (active)

N#Cc1cccc(NC(=O)N2CCCC3(CCN(C(=O)c4csnn4)CC3)C2)c1
AC50 (Cytochrome P450 3A4): 15.8 µM (inconclusive)

CCNc1ncc2ncc(=O)n(CCc3ccccc3)c2n1
AC50 (Cytochrome P450 2D6): 25.1 µM (inconclusive) | AC50 (Cytochrome P450 3A4): 15.8 µM (inconclusive) | AC50 (Cytochrome P450 2C9): 15.8 µM (inconclusive)

COc1ccc(-c2csc(-c3cccnc3)n2)cc1C
CC50 [4]: 38.8 µM (active)

COc1cc(OC)c(C(=O)Nc2ccccc2-c2ccccc2)cc1OC
CC50 [4]: 18.9 µM (active)

COc1ccc(NC(=O)N2CC[C@@]3(CCCN(C(=O)Oc4ccccc4)C3)C2)cc1
AC50 (Cytochrome P450 2C19): 15.8 µM (inconclusive) | AC50 (Cytochrome P450 3A4): 39.8 µM (inconclusive) | AC50 (Cytochrome P450 2C9): 25.1 µM (inconclusive)

N#Cc1nc(-c2ccc(OCc3ccccc3)cc2)oc1NCCN1CCOCC1
AC50 (Cytochrome P450 3A4): 3.98 µM (inconclusive)

Cc1nn(C)c(Cl)c1CN1CCCC(CO)(Cc2cccc(Cl)c2)C1 (stereo not given)
CC50 [4]: 43.6 µM (active)

COC(=O)C1C(O)=C(/C=N/Cc2ccccc2)C(=O)CC1(C)C (stereo not given)
AC50 (Cytochrome P450 2C19): 39.8 µM (inconclusive) | AC50 (Cytochrome P450 2C9): 14.1 µM (inconclusive)

COc1ccc(NC(=O)N2CCCC2C(=O)Nc2ccccc2)cc1 (stereo not given)
AC50 (Cytochrome P450 2C19): 20 µM (inconclusive) | AC50 (Cytochrome P450 2C9): 28.2 µM (inconclusive)

Cn1c(=O)c(CCc2ccccc2)nc2cnc(N3CCNCC3)nc21
AC50 (Cytochrome P450 3A4): 0.0251 µM (inconclusive) | AC50 (Cytochrome P450 2C9): 25.1 µM (inconclusive)

CCNc1ncc2nc(-c3cccs3)c(=O)n(Cc3ccc(F)cc3)c2n1
AC50 (Cytochrome P450 2D6): 31.6 µM (inconclusive) | AC50 (Cytochrome P450 2C19): 20 µM (inconclusive) | AC50 (Cytochrome P450 1A2): 10 µM (inconclusive) | AC50 (Cytochrome P450 2C9): 31.6 µM (inconclusive)

CCOc1ccc(NC(=O)c2nnn(CC(=O)Nc3ccccc3OC)c2N)cc1
AC50 (Cytochrome P450 2C19): 3.55 µM (inconclusive)

O=C(Nc1cccc(F)c1)N1CC[C@@]2(CCCN(C(=O)c3cccc(F)c3)C2)C1
AC50 (Cytochrome P450 3A4): 15.8 µM (inconclusive) | AC50 (Cytochrome P450 1A2): 12.6 µM (inconclusive)

CCOc1ccc(S(=O)(=O)N2CCN(C(=O)c3cc(-c4ccccc4)nn3-c3ccccc3)CC2)cc1
CC50 [4]: 48 µM (active)

Cc1cccc(N2CCN(C(=O)Cc3ccc(-n4c(=O)[nH]c5ccsc5c4=O)cc3)CC2)c1C
CC50 [4]: 30.2 µM (active)

CCC(CC)C(=O)NCCN1CCN(C(=O)C(CC)CC)CC1
AC50 (Cytochrome P450 2C19): 31.6 µM (inconclusive)
